The source of these data is ChEMBL document CHEMBL1134003, “7-Pyrrolidinyl- and 7-piperidinyl-5-aryl-pyrrolo[2,3-d]pyrimidines--potent inhibitors of the tyrosine kinase c-Src” (Bioorg Med Chem Lett, 2001).

Bounds are passed on as bounds.

Test [1] concerns the target Proto-oncogene tyrosine-protein kinase Src (Homo sapiens, UniProt P12931). As to the kind of experiment: Inhibition of p60 c-Src tyrosine kinase enzyme activity in liquid-phase tyrosine phosphorylation assay at 830 ng/mL.
For test [2], the target named is T1, Epidermal growth factor receptor (Homo sapiens, UniProt P00533). As to the kind of experiment: Concentration required for inhibition of epidermal growth factor receptor (EGF-R) by tyrosine kinase enzyme activity.
T1 sequence (P00533 whole entry): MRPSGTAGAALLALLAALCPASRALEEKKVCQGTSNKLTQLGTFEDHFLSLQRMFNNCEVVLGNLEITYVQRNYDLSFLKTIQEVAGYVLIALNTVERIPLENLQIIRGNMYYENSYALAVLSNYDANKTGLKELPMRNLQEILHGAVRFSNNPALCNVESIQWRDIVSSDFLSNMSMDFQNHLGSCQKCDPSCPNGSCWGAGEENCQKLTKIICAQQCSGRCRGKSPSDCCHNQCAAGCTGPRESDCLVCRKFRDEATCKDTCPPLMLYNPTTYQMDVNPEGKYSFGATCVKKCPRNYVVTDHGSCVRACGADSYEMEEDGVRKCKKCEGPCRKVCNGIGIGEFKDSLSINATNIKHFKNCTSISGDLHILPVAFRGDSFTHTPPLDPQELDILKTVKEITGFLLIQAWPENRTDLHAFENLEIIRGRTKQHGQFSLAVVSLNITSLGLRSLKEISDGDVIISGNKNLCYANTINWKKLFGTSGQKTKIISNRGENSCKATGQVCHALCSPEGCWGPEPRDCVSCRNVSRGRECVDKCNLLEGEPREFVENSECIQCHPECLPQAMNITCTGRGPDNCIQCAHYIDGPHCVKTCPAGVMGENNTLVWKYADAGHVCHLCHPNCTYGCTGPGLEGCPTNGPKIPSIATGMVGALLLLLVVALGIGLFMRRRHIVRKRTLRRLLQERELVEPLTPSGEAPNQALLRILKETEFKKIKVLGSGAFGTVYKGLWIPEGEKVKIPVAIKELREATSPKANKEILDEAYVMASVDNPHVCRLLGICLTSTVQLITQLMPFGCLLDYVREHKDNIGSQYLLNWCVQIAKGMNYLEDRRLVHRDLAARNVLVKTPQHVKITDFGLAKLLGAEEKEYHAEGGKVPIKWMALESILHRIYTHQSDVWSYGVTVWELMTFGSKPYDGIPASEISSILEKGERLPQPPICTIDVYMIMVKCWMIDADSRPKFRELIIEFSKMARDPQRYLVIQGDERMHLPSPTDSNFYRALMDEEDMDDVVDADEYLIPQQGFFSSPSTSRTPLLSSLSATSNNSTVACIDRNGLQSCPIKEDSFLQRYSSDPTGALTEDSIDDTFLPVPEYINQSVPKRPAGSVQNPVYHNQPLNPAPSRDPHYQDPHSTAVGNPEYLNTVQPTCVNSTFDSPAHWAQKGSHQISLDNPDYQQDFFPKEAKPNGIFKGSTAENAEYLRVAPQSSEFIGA
Test [3] addresses Proto-oncogene tyrosine-protein kinase Src (Gallus gallus, UniProt P00523). Description: Concentration required for inhibition of c-Src mediated phosphorylation of Fak in IC8.1 fibroblast cell assay. It counts as functional, cell-based.
The target in test [4] is T2, Tyrosine-protein kinase ABL (Homo sapiens, UniProt P00519+P42684).
Description: Concentration required for inhibition of v-Abl receptor by tyrosine kinase enzyme assay
Test [5] deals with T1, Epidermal growth factor receptor. As to the kind of experiment: Inhibition of autophosphorylation of epidermal growth factor receptor (EGF-R) in a cellular assay.
For test [6] the target is unchanged. As to the kind of experiment: Inhibition of epidermal growth factor receptor (EGF-R).
Test [7] has as its target T2, Tyrosine-protein kinase ABL. As to the kind of experiment: Inhibition of v-Abl receptor tyrosine kinase enzyme activity. Type of test: protein assay.

Sequence of Proto-oncogene tyrosine-protein kinase Src (Homo sapiens, UniProt P12931) (P12931 2-536 limits assumed): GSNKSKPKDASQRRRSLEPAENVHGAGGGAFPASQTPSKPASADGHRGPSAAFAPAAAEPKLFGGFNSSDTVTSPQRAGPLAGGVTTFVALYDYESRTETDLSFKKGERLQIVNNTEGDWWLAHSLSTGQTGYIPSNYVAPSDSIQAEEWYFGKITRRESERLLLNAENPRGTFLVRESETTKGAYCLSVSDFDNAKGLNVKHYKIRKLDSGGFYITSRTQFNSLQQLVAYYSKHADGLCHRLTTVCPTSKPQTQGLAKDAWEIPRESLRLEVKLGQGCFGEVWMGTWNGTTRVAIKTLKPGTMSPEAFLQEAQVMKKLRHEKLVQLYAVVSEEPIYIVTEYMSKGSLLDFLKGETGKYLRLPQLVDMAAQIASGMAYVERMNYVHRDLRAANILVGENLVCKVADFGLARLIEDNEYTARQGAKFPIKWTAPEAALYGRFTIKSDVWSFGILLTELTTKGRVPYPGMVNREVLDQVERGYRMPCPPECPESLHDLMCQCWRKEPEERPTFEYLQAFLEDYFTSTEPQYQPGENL

`CC(C)(C)OC(=O)N1C[C@H](n2cc(-c3ccccc3)c3c(N)ncnc32)C[C@@H]1CO`: 2000 nM corresponded to half-maximal inhibition in test [1] (IC50).
Same read-out and setting: then `Nc1ncnc2c1c(-c1ccccc1)cn2[C@H]1CN[C@@H](CO)C1`, with 130 nM.
Turning to `COc1cccc(-c2cn(C3CCN(C(=O)OC(C)(C)C)C3)c3ncnc(N)c23)c1` (stereo not drawn), the half-inhibitory concentration (IC50) (in general, the concentration that gives 50% inhibition) in test [2] amounted to 2100 nM; in test [3] it was 4400 nM; in test [1], 270 nM; in test [4], 2400 nM.
`COc1cccc(-c2cn(C3CCN(CCN(C)CCO)CC3)c3ncnc(N)c23)c1`: the IC50 was 295 nM in test [2]; 7800 nM in test [5]; 600 nM in test [3]; 6 nM in test [1]; 360 nM in test [4].
Turning to `Nc1ncnc2c1c(-c1ccccc1)cn2C1CCNC1` (stereo not drawn), in test [1], the IC50 was 230 nM.
On to `CC(C)(C)OC(=O)N1CCC(n2cc(-c3cccc(O)c3)c3c(N)ncnc32)C1` (stereo not drawn), for which the IC50 is 2200 nM in test [2]; over 10000 nM in test [5]; 3100 nM in test [3]; 5 nM in test [1]; 58 nM in test [4].
For `CC(C)(C)OC(=O)N1C[C@@H](n2cc(-c3ccc(O)cc3)c3c(N)ncnc32)C[C@@H]1CO`, the IC50 in test [3] was 3300 nM; in test [1] it was 24 nM.
For `COc1cccc(-c2cn(C3CCN(CC(N)=O)CC3)c3ncnc(N)c23)c1`, the half-maximal inhibitory concentration (IC50) in test [2] came out at 350 nM; in test [3], 700 nM; in test [1], 22 nM; in test [4], 550 nM.
For `COC(=O)CN1CCC(n2cc(-c3cccc(OC)c3)c3c(N)ncnc32)CC1`, the IC50 in test [3] is 2800 nM; in test [1], 84 nM; in test [4], 1000 nM.
For the compound `COc1cccc(-c2cn(C3CCN(CCO)CC3)c3ncnc(N)c23)c1`, the IC50 in test [2] was 900 nM; in test [5] it was over 10000 nM; in test [3], 1400 nM; in test [1], 27 nM; in test [4] it was 1030 nM.
For `CCOC(=O)C[C@H]1C[C@H](n2cc(-c3ccccc3)c3c(N)ncnc32)CN1C(=O)OC(C)(C)C`, the IC50 in test [1] was 410 nM.
Turning to `COc1cccc(-c2cn(C3CCNC3)c3ncnc(N)c23)c1` (stereo not drawn), the half-inhibitory concentration (IC50) in test [2] is 1120 nM; in test [3], over 5000 nM; in test [1], 53 nM; in test [4] it was 1400 nM.
For `Nc1ncnc2c1c(-c1cccc(O)c1)cn2C1CCN(CCO)CC1`, the IC50 was 2540 nM in test [2]; over 10000 nM in test [5]; 600 nM in test [3]; 1 nM in test [1]; 98 nM in test [4].
For the compound `CN(C)C(=O)CN1CCC(n2cc(-c3cccc(O)c3)c3c(N)ncnc32)CC1`, the IC50 is 500 nM in test [2], over 10000 nM in test [5], 3 nM in test [1] and 120 nM in test [4].
On to `CCOC(=O)C[C@H]1C[C@@H](n2cc(-c3ccc(O)cc3)c3c(N)ncnc32)CN1`, for which the concentration for half-maximal inhibition (IC50) in test [3] was 3300 nM; in test [1], 5 nM.
The compound `CCOC(=O)C[C@H]1C[C@@H](n2cc(-c3ccccc3)c3c(N)ncnc32)CN1C(=O)OC(C)(C)C` displayed an IC50 in test [1] of 5000 nM.
For the compound `CCOC(=O)C[C@H]1C[C@H](n2cc(-c3ccc(O)cc3)c3c(N)ncnc32)CN1`, the midpoint of inhibition in test [1], the IC50, lay at 100 nM.
As for `Nc1ncnc2c1c(-c1cccc(O)c1)cn2C1CCNC1` (stereo not drawn), the IC50 in test [2] was 1530 nM; in test [5], over 10000 nM; in test [3], 800 nM; in test [1] it was 6 nM; in test [4], 290 nM.
As for `COCCNCCN1CCC(n2cc(-c3cccc(OC)c3)c3c(N)ncnc32)CC1`, the IC50 was 310 nM in test [6]; over 10000 nM in test [5]; 290 nM in test [3]; 15 nM in test [1]; 310 nM in test [7].
Consider `COC(=O)CN1CCC(n2cc(-c3cccc(O)c3)c3c(N)ncnc32)CC1`, for which the IC50 in test [2] is 800 nM; in test [5] it was over 10000 nM; in test [3], 400 nM; in test [1], under 1 nM; in test [4] it was 56 nM.
As to `NC(=O)CN1CCC(n2cc(-c3cccc(O)c3)c3c(N)ncnc32)CC1`, the IC50 in test [2] was 170 nM; in test [5], over 10000 nM; in test [3], 800 nM; in test [1], 1 nM; in test [4], 210 nM.
Take `COCCN(C)CCN1CCC(n2cc(-c3cccc(OC)c3)c3c(N)ncnc32)CC1`: the IC50 in test [6] is 930 nM; in test [5] it was over 10000 nM; in test [3], 500 nM; in test [1], 47 nM; in test [4], 500 nM.
For `CCOC(=O)C[C@H]1C[C@H](n2cc(-c3ccccc3)c3c(N)ncnc32)CN1`, the IC50 in test [1] stood at 600 nM.
As for `COc1ccc(-c2cn(C3CCN(C(=O)OC(C)(C)C)C3)c3ncnc(N)c23)cc1` (stereo not drawn), the IC50 in test [3] and in test [1] was 400 nM in each case.
For the compound `COc1ccc(-c2cn(C3CCNC3)c3ncnc(N)c23)cc1` (stereo not drawn), 300 nM corresponded to half-maximal inhibition in test [1] (IC50).
For `CCOC(=O)C[C@H]1C[C@H](n2cc(-c3ccc(O)cc3)c3c(N)ncnc32)CN1C(=O)OC(C)(C)C`, the IC50 in test [3] was found to be 700 nM; in test [1] it was 35 nM.
With `CCOC(=O)C[C@H]1C[C@@H](n2cc(-c3ccccc3)c3c(N)ncnc32)CN1`, the IC50 is over 5000 nM in test [3] and 15 nM in test [1].
In turn, `CCOC(=O)C[C@H]1C[C@@H](n2cc(-c3ccc(O)cc3)c3c(N)ncnc32)CN1C(=O)OC(C)(C)C` registered an IC50 in test [1] of 300 nM.
`CC(C)(C)OC(=O)N1C[C@@H](n2cc(-c3ccccc3)c3c(N)ncnc32)C[C@@H]1CO` displayed an IC50 in test [1] of 130 nM.
As for `CC(C)(C)OC(=O)N1CCC(n2cc(-c3ccccc3)c3c(N)ncnc32)C1` (stereo not drawn), the IC50 is 8300 nM in test [2], over 5000 nM in test [3] and 180 nM in test [1].
In the case of `Nc1ncnc2c1c(-c1ccc(O)cc1)cn2C1CCNC1` (stereo not drawn), the half-maximal inhibitory concentration (IC50) stood at 2670 nM in test [2], 2700 nM in test [3], 37 nM in test [1] and 2800 nM in test [4].
Turning to `COC(=O)CN1CCC(n2cc(-c3cccc(O)c3)c3c(N)ncnc32)C1` (stereo not drawn), the IC50 in test [2] was 740 nM; in test [5], over 10000 nM; in test [3] it was 700 nM; in test [1], 3 nM; in test [4] it was 54 nM.
Regarding `COc1cccc(-c2cn(C3CCN(CC(=O)N(C)C)CC3)c3ncnc(N)c23)c1`, the IC50 in test [2] is 750 nM; in test [3], over 5000 nM; in test [1], 67 nM.
With `COc1cccc(-c2cn(C3CCN(CC(N)=O)C3)c3ncnc(N)c23)c1` (stereo not drawn), the IC50 in test [2] was 440 nM; in test [3], over 5000 nM; in test [1] it was 38 nM; in test [4] it was 700 nM.
With `COC(=O)CN1CCC(n2cc(-c3cccc(OC)c3)c3c(N)ncnc32)C1` (stereo not drawn), the IC50 in test [3] is over 5000 nM; in test [1], 50 nM; in test [4], 590 nM.
On to `Nc1ncnc2c1c(-c1ccccc1)cn2[C@@H]1CN[C@@H](CO)C1`, for which, in test [1], the IC50 is 300 nM.
`NC(=O)CN1CCC(n2cc(-c3cccc(O)c3)c3c(N)ncnc32)C1` (stereo not drawn): the IC50 in test [2] is 400 nM; in test [5], over 10000 nM; in test [1] it was 4 nM; in test [4], 150 nM.
`CC(C)(C)OC(=O)N1CCC(n2cc(-c3ccc(O)cc3)c3c(N)ncnc32)C1` (stereo not drawn): the IC50 came out at 400 nM in test [3] and 8 nM in test [1].
In turn, `CC(C)(C)OC(=O)N1C[C@H](n2cc(-c3ccc(O)cc3)c3c(N)ncnc32)C[C@@H]1CO` gave an IC50 in test [1] of 350 nM.
`Nc1ncnc2c1c(-c1ccc(O)cc1)cn2[C@H]1CNC(CO)C1` (single isomer, unassigned): the IC50 was over 5000 nM in test [3] and 50 nM in test [1].
As for `Nc1ncnc2c1c(-c1ccc(O)cc1)cn2C1CN[C@@H](CO)C1` (single isomer, unassigned), the IC50 in test [3] was over 5000 nM; in test [1], 95 nM.
